These results are taken from US20040121316A1 (priority 2002, published 2004).

In assay [1] the test system is wild-type HIV-1 strain IIIB. The assay is described as follows: microbe, parasite or virus in culture. In kind it is cell-based. Also on record: scale not given here.
The test system of a further assay is mutant HIV-1 I84V/L90M. The assay can be described thus: Resistance Evaluation, I84V/L90M fold change. In kind it is cell-based. Also on record: scale not given here.
Where [2] appears, read: Human immunodeficiency virus 1, IIIB.
The mark [3] stands for this setting: EC50 of mutant I84V/L90M relative to wild type, class symbols.

The structures appear in SMILES notation. Like-named read-outs stand apart in the source and are kept apart here.

One may read the EC50 as the midpoint of the concentration-response curve. `COc1ccc(S(=O)(=O)N(CC(C)C)CC(O)C(CNc2ccc(CP(=O)(O)O)cc2)NC(=O)OC2COC3OCCC23)cc1` (stereo not shown) came in with an EC50 in assay [1] (setting [2]) of 500 to 5000 nM. Moreover, in the assay on mutant HIV-1 I84V/L90M (setting [3]), the I84V/L90M fold change result is “+ (>3 to ≦10)”.

For the compound `CCOC(=O)C(C)OP(=O)(CN1CC=C(CC(NC(=O)OC2COC3OCCC23)C(O)CN(CC(C)C)S(=O)(=O)c2ccc(OC)cc2)CC1)Oc1ccccc1` (stereo not shown), the “EC50 (nM)” value in assay [1] is “+ + +”. Also, in the assay with mutant HIV-1 I84V/L90M (mutant I84V/L90M vs wild type), the I84V/L90M fold change result is on record as “− (≦3)”.

`COc1ccc(S(=O)(=O)N(CCN2CCOCC2)CC(O)C(Cc2ccc(OCP(=O)(O)O)cc2)NC(=O)OC2COC3OCCC23)cc1` (stereo not shown) yielded an EC50 in assay [1] (setting [2]) greater than 5000 nM. Besides, in the assay on mutant HIV-1 I84V/L90M (mutant I84V/L90M vs wild type), the I84V/L90M fold change entry was “+ (>3 to ≦10)”.

Compound `Cc1cccc(C)c1OCC(=O)NC(Cc1ccc(OCP(=O)(O)O)cc1)C(O)CN(CC(C)C)S(=O)(=O)c1ccc(N)cc1` (stereo not shown) had an EC50 in assay [1] (setting [2]) greater than 5000 nM. For the same compound, the I84V/L90M fold change entry in the assay with mutant HIV-1 I84V/L90M (mutant I84V/L90M vs wild type) is “− (≦3)”.

`Cc1ccc(C(=O)NC(Cc2ccc(OCP(=O)(O)O)cc2)C(O)CN(CC(C)C)S(=O)(=O)c2ccc(N)cc2)cc1O` (stereo not shown) had an EC50 in assay [1] (setting [2]) greater than 5000 nM. The I84V/L90M fold change result in the assay on mutant HIV-1 I84V/L90M (mutant I84V/L90M vs wild type) is on record as “+ (>3 to ≦10)”.

As to `CC(C)CN(CC(O)C(Cc1ccc(OCP(=O)(O)O)cc1)NC(=O)OC1COC2OCCC12)S(=O)(=O)c1ccc(N)cc1` (stereo not shown), the EC50 in assay [1] (setting [2]) was greater than 5000 nM. Also, the I84V/L90M fold change result with mutant HIV-1 I84V/L90M (mutant I84V/L90M vs wild type) is on record as “− (≦3)”.

For `CCOP(=O)(COc1ccc(CC(NC(=O)OC2COC3OCCC23)C(O)CN(CC(C)C)S(=O)(=O)c2ccc(N)cc2)cc1)OCC` (stereo not shown), the I84V/L90M fold change entry in the assay with mutant HIV-1 I84V/L90M (mutant I84V/L90M vs wild type) is “− (≦3)”.

In the case of `CCNc1ccc(S(=O)(=O)N(CC(C)C)CC(O)C(Cc2ccc(OCP(=O)(OCC)OCC)cc2)NC(=O)OC2COC3OCCC23)cc1` (stereo not shown), the I84V/L90M fold change entry with mutant HIV-1 I84V/L90M (mutant I84V/L90M vs wild type) was “− (≦3)”.

For the compound `CC(C)CN(CC(O)C(Cc1ccc(OCP(=O)(OCc2ccccc2)OCc2ccccc2)cc1)NC(=O)OC1COC2OCCC12)S(=O)(=O)c1ccc(N)cc1` (stereo not shown), the I84V/L90M fold change entry in the assay with mutant HIV-1 I84V/L90M (mutant I84V/L90M vs wild type) is “− (≦3)”.

`CC(C)CN(CC(O)C(Cc1ccc(OCP(=O)(O)O)cc1)NC(=O)OC1COC2OCCC12)S(=O)(=O)c1cccc(N)c1` (stereo not shown) returned an EC50 in assay [1] (setting [2]) of 500 to 5000 nM. Further, in the assay with mutant HIV-1 I84V/L90M (mutant I84V/L90M vs wild type), the I84V/L90M fold change result is on record as “− (≦3)”.

Regarding `CCOP(=O)(COc1ccc(CC(NC(=O)OC2COC3OCCC23)C(O)CN(CC(C)C)S(=O)(=O)c2cccc(N)c2)cc1)OCC` (stereo not shown), in the assay on mutant HIV-1 I84V/L90M (mutant I84V/L90M vs wild type), the I84V/L90M fold change result is given as “− (≦3)”.

For `CC(C)CN(CC(O)C(Cc1ccc(OCP(=O)(OCc2ccccc2)OCc2ccccc2)cc1)NC(=O)OC1COC2OCCC12)S(=O)(=O)c1cccc(N)c1` (stereo not shown), the I84V/L90M fold change result with mutant HIV-1 I84V/L90M (mutant I84V/L90M vs wild type) is on record as “− (≦3)”.

Regarding `CC(C)CN(CC(O)C(Cc1ccc(OCP(=O)(OCc2ccccc2)OCc2ccccc2)cc1)NC(=O)OC1COC2OCCC12)S(=O)(=O)c1ccccc1` (stereo not shown), the I84V/L90M fold change entry in the assay with mutant HIV-1 I84V/L90M (mutant I84V/L90M vs wild type) is given as “+ (>3 to ≦10)”.

As for `CC(C)CN(CC(O)C(Cc1ccc(OCP(=O)(OCc2ccccc2)OCc2ccccc2)cc1)NC(=O)OC1COC2OCCC12)S(=O)(=O)c1ccc(F)cc1` (stereo not shown), in the assay with mutant HIV-1 I84V/L90M (mutant I84V/L90M vs wild type), the I84V/L90M fold change result is recorded as “+ (>3 to ≦10)”.

With `CC(C)CN(CC(O)C(Cc1ccc(OCP(=O)(OCc2ccccc2)OCc2ccccc2)cc1)NC(=O)OC1COC2OCCC12)S(=O)(=O)c1ccc(C(F)(F)F)cc1` (stereo not shown), the I84V/L90M fold change result with mutant HIV-1 I84V/L90M (mutant I84V/L90M vs wild type) is “− (≦3)”.

Turning to `CC(C)CN(CC(O)C(Cc1ccc(OCP(=O)(OCc2ccccc2)OCc2ccccc2)cc1)NC(=O)OC1COC2OCCC12)S(=O)(=O)c1ccc(C#N)cc1` (stereo not shown), the I84V/L90M fold change result with mutant HIV-1 I84V/L90M (mutant I84V/L90M vs wild type) was “− (≦3)”.

With `CCCCOC(=O)C(C)OP(=O)(COc1ccc(C[C@H](NC(=O)O[C@H]2CO[C@H]3OCC[C@H]32)[C@H](O)CN(CC(C)C)S(=O)(=O)c2cccc(N)c2)cc1)Oc1ccccc1` (stereo partly shown), in assay [1], the “EC50 (nM)” value is “+ +”. In addition, the I84V/L90M fold change entry with mutant HIV-1 I84V/L90M (mutant I84V/L90M vs wild type) is “− (≦3)”.

As to `CC(C)CN(CC(O)C(Cc1ccccc1)NC(=O)OC1COC2OCCC12)S(=O)(=O)c1ccc(O)cc1` (stereo not shown), in the assay with mutant HIV-1 I84V/L90M (mutant I84V/L90M vs wild type), the I84V/L90M fold change result is recorded as “− (≦3)”.

Consider `CC(C)CN(CC(O)C(Cc1ccccc1)NC(=O)OC1COC2OCCC12)S(=O)(=O)c1ccc(OCP(=O)(O)O)cc1` (stereo not shown), for which the EC50 in assay [1] (setting [2]) was in the range of 500 to 5000 nM. In addition, in the assay with mutant HIV-1 I84V/L90M (mutant I84V/L90M vs wild type), the I84V/L90M fold change result is on record as “− (≦3)”.

On to `CC(C)CN(CC(O)C(Cc1ccccc1)NC(=O)OC1COC2OCCC12)S(=O)(=O)c1cccc(O)c1` (stereo not shown), for which, in the assay with mutant HIV-1 I84V/L90M (mutant I84V/L90M vs wild type), the I84V/L90M fold change result is reported as “+ (>3 to ≦10)”.

For `CC(C)CN(CC(O)C(Cc1ccccc1)NC(=O)OC1COC2OCCC12)S(=O)(=O)c1cccc(OCP(=O)(O)O)c1` (stereo not shown), the I84V/L90M fold change entry with mutant HIV-1 I84V/L90M (mutant I84V/L90M vs wild type) is recorded as “+ (>3 to ≦10)”.

As to `COc1ccc(S(=O)(=O)N(CC(C)C)CC(O)C(Cc2ccccc2)NC(=O)OC2COC3OCCC23)cc1O` (stereo not shown), in the assay with mutant HIV-1 I84V/L90M (mutant I84V/L90M vs wild type), the I84V/L90M fold change entry is “− (≦3)”.

Regarding `COc1ccc(S(=O)(=O)N(CC(C)C)CC(O)C(Cc2ccccc2)NC(=O)OC2COC3OCCC23)cc1OCP(=O)(O)O` (stereo not shown), the I84V/L90M fold change entry in the assay with mutant HIV-1 I84V/L90M (mutant I84V/L90M vs wild type) is on record as “− (≦3)”.

With `CCOP(=O)(COc1cc(S(=O)(=O)N(CC(C)C)CC(O)C(Cc2ccccc2)NC(=O)OC2COC3OCCC23)ccc1OC)OCC` (stereo not shown), in the assay with mutant HIV-1 I84V/L90M (mutant I84V/L90M vs wild type), the I84V/L90M fold change result is “+ (>3 to ≦10)”.

In the case of `CCOP(=O)(COc1cc(S(=O)(=O)N(CC(C)C)CC(O)C(Cc2ccccc2)NC(=O)OC2COC3OCCC23)ccc1O)OCC` (stereo not shown), the I84V/L90M fold change entry in the assay on mutant HIV-1 I84V/L90M (mutant I84V/L90M vs wild type) is on record as “− (≦3)”.

In assay [1] (setting [2]), `CCOC(=O)C(C)NP(=O)(COc1ccc(CC(NC(=O)OC2COC3OCCC23)C(O)CN(CC(C)C)S(=O)(=O)c2ccc(OC)cc2)cc1)OCc1ccccc1` (stereo not shown) [Example 30e] showed an EC50 of less than 50 nM. For the same compound, the I84V/L90M fold change entry in the assay on mutant HIV-1 I84V/L90M (setting [3]) is listed as “− (≦3)”.

Turning to `CCOP(=O)(COc1ccc(S(=O)(=O)N(CC(C)C)CC(O)C(Cc2ccc(N)cc2)NC(=O)OC2COC3OCCC23)cc1)OCC` (stereo not shown) [NH2, OEt], the EC50 in assay [1] (read-out: EC50) lay in the range of 50 to 500 nM. For the same compound, in the assay with mutant HIV-1 I84V/L90M (mutant I84V/L90M vs wild type), the I84V/L90M fold change entry was “++ (>10 to ≦30)”.

`CCOP(=O)(COc1ccc(S(=O)(=O)N(CC(C)C)CC(O)C(Cc2ccc(N(C)C)cc2)NC(=O)OC2COC3OCCC23)cc1)OCC` (stereo not shown) [NMe2, OEt]: the EC50 in assay [1] (read-out: EC50) was less than 50 nM. The I84V/L90M fold change result with mutant HIV-1 I84V/L90M (mutant I84V/L90M vs wild type) is “++ (>10 to ≦30)”.

For the compound `CC(C)CN(CC(O)C(Cc1ccc(O)cc1)NC(=O)OC1COC2OCCC12)S(=O)(=O)c1cccc(N)c1` (stereo not shown) [OH, m-NH2], the “EC50 (nM)” value in assay [1] is reported as “+ +”. Further, the I84V/L90M fold change result in the assay with mutant HIV-1 I84V/L90M (mutant I84V/L90M vs wild type) is given as “− (≦3)”.

On to `CC(C)CN(CC(O)C(Cc1ccc(O)cc1)NC(=O)OC1COC2OCCC12)S(=O)(=O)c1ccc(N)cc1` (stereo not shown) [OH, p-NH2], for which the “EC50 (nM)” value in assay [1] is on record as “+ +”. In the assay with mutant HIV-1 I84V/L90M (mutant I84V/L90M vs wild type), the I84V/L90M fold change result was “− (≦3)”.

As for `COc1ccc(S(=O)(=O)N(CC(C)C)C[C@@H](O)[C@H](Cc2ccc(OCP(=O)(OCc3ccccc3)OCc3ccccc3)cc2)NC(=O)OC2CCOC2)cc1` (stereo partly shown) [OMe, OBn], in assay [1], the “EC50 (nM)” value is on record as “+ + +”. Besides, the I84V/L90M fold change entry in the assay on mutant HIV-1 I84V/L90M (mutant I84V/L90M vs wild type) is reported as “+ +”.

For the compound `COc1ccc(S(=O)(=O)N(CC(C)C)C[C@@H](O)[C@H](Cc2ccc(OCP(=O)(O)O)cc2)NC(=O)OC2CCOC2)cc1` (stereo partly shown) [OMe, OH], in assay [1] (read-out: EC50), the EC50 is greater than 5000 nM. The I84V/L90M fold change result with mutant HIV-1 I84V/L90M (mutant I84V/L90M vs wild type) is “+ + +”.

`CCCCOC(=O)C(CC)NP(=O)(COc1ccc(CC(NC(=O)OC2COC3OCCC23)C(O)CN(CC(C)C)S(=O)(=O)c2ccc(OC)cc2)cc1)NC(CC)C(=O)OCCCC` (stereo not shown) [drawing 612 R1=Aba-Bu R2=Aba-Bu] had an EC50 in assay [1] (setting [2]) of less than 50 nM. Also, the I84V/L90M fold change entry in the assay on mutant HIV-1 I84V/L90M (setting [3]) is “+ (>3 to ≦10)”.

Regarding `COc1ccc(S(=O)(=O)N(CC(C)C)CC(O)C(Cc2ccc(OCP(=O)(O)OC(C)C(=O)O)cc2)NC(=O)OC2COC3OCCC23)cc1` [drawing 615 R1=OH R2=(R)Lac-OH], the I84V/L90M fold change entry in the assay with mutant HIV-1 I84V/L90M (setting [3]) is “− (≦3)”.

Consider `COc1ccc(S(=O)(=O)N(CC(C)C)CC(O)C(CC2=CCN(CCP(=O)(OCc3ccccc3)OCc3ccccc3)CC2)NC(=O)OC2COC3OCCC23)cc1` (stereo not shown) [drawing 630], for which, in the assay on mutant HIV-1 I84V/L90M (setting [3]), the I84V/L90M fold change result is listed as “+ (>3 to ≦10)”.
